According to the supplement of paper PMC6965134:
± gives the standard deviation of the averaged measurements. Blank lines part the entries; values can stand above or below the compound they belong to.

Experiment: TIMS collisional cross section (CCS, N2) of the lipid ion; higher = larger ion cross section
Details: ionization mode: negative, one isomer drawn
Protocol: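 Lipid extracts of human plasma (NIST SRM 1950), mouse liver or HeLa cells were separated by nanoflow C18 LC (30 min gradient) and analysed by TIMS-PASEF on a timsTOF Pro. Ion mobility was calibrated with the Agilent tuning mix (negative mode ions) and converted to collisional cross sections (Mason–Schamp, N2).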

[1] = sample type: Human plasma, ion (formula + adduct): [C41H82NO8P+HCOO] 1-
[2] = sample type: Human plasma, ion (formula + adduct): [C42H78NO8P+HCOO] 1-
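Also: lipids from MTBE extraction, five replicate injections per sample, 100 ms TIMS ramp spanning 0.6–1.95 Vs/cm², lipid identity assigned from PASEF MS/MS spectra.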

- TIMS collisional cross section (sample type: Mouse Liver, ion (formula + adduct): [C46H80NO8P-CH3] 1-): 281.3 Å²
SMILES: CC/C=C\C/C=C\C/C=C\C/C=C\C/C=C\C/C=C\CCC(=O)O[C@H](COC(=O)CCCCCCCCCCCCCCC)COP(=O)([O-])OCC[N+](C)(C)C [PC 16:0@_22:6]

- TIMS collisional cross section (sample type: Human plasma, ion (formula + adduct): [C27H52NO8P+OAcO] 1-): 252.2 Å²
- TIMS collisional cross section (sample type: Mouse Liver, ion (formula + adduct): [C27H52NO8P+AcO] 1-): 244.7 Å²
SMILES: C=CC(=O)O[C@H](COC(=O)CCCCCCCCCCCCCCC)COP(=O)([O-])OCC[N+](C)(C)C [PC 16:0_3:1@]

- TIMS collisional cross section (sample type: Human plasma, ion (formula + adduct): [C27H52NO8P+AcO] 1-): 245.3 Å²
- TIMS collisional cross section (sample type: Mouse Liver, ion (formula + adduct): [C27H52NO8P+OAcO] 1-): 252.2 Å²
SMILES: C=CC(=O)O[C@H](COC(=O)CCCCCCCCCCCCCCC)COP(=O)([O-])OCC[N+](C)(C)C [PC 16:0_3:1]

- TIMS collisional cross section (sample type: Mouse Liver, ion (formula + adduct): [C29H56NO8P+HCOO] 1-): 247.5 Å²
SMILES: C=CCCC(=O)O[C@H](COC(=O)CCCCCCCCCCCCCCC)COP(=O)([O-])OCC[N+](C)(C)C [PC 16:0_5:1@]

- TIMS collisional cross section (sample type: Mouse Liver, ion (formula + adduct): [C29H56NO8P+AcO] 1-): 252.1 Å²
SMILES: C=CCCC(=O)O[C@H](COC(=O)CCCCCCCCCCCCCCC)COP(=O)([O-])OCC[N+](C)(C)C [PC 16:0_5:1]

- TIMS collisional cross section (sample type: Human plasma, ion (formula + adduct): [C33H66NO8P-H] 1-): 260.3 Å²
SMILES: CCCCCCCCCCCCCCCC(=O)OC[C@H](COP(=O)([O-])OCC[N+](C)(C)C)OC(=O)CCCCCCCC [PC 16:0_9:0@]

- TIMS collisional cross section (sample type: Human plasma, ion (formula + adduct): [C40H80NO8P+HCOO] 1-): 289.35 ± 2.3 Å²
- TIMS collisional cross section (sample type: Mouse Liver, ion (formula + adduct): [C40H80NO8P+HCOO] 1-): 287.7 Å²
SMILES: CCCCCCCCCCCCCCCC(=O)OC[C@H](COP(=O)([O-])OCC[N+](C)(C)C)OC(=O)CCCCCCCCCCCCCCC [PC 16:0_16:0]

- TIMS collisional cross section (sample type: Human plasma, ion (formula + adduct): [C40H78NO8P+HCOO] 1-): 286.6 Å²
SMILES: CCCCCC/C=C\CCCCCCCC(=O)O[C@H](COC(=O)CCCCCCCCCCCCCCC)COP(=O)([O-])OCC[N+](C)(C)C [PC 16:0_16:1]

- TIMS collisional cross section [1]: 290.3 Å²
SMILES: CCCCCCCCCCCCCCCCC(=O)O[C@H](COC(=O)CCCCCCCCCCCCCCC)COP(=O)([O-])OCC[N+](C)(C)C [PC 16:0_17:0]

- TIMS collisional cross section (sample type: Mouse Liver, ion (formula + adduct): [C41H80NO8P+HCOO] 1-): 288.8 Å²
SMILES: CCCCCCC/C=C\CCCCCCCC(=O)O[C@H](COC(=O)CCCCCCCCCCCCCCC)COP(=O)([O-])OCC[N+](C)(C)C [PC 16:0_17:1]

- TIMS collisional cross section (sample type: Human plasma, ion (formula + adduct): [C42H84NO8P+HCOO] 1-): 293.4 Å²
- TIMS collisional cross section (sample type: Mouse Liver, ion (formula + adduct): [C42H84NO8P+AcO] 1-): 299.1 Å²
- TIMS collisional cross section (sample type: Mouse Liver, ion (formula + adduct): [C42H84NO8P+HCOO] 1-): 293.4 Å²
SMILES: CCCCCCCCCCCCCCCCCC(=O)O[C@H](COC(=O)CCCCCCCCCCCCCCC)COP(=O)([O-])OCC[N+](C)(C)C [PC 16:0_18:0]

- TIMS collisional cross section [2]: 288.8 Å²
SMILES: CCCCC/C=C\C/C=C\C/C=C\CCCCC(=O)O[C@H](COC(=O)CCCCCCCCCCCCCCC)COP(=O)([O-])OCC[N+](C)(C)C [PC 16:0_18:3@]

- TIMS collisional cross section [2]: 289.9 Å²
- TIMS collisional cross section (sample type: Mouse Liver, ion (formula + adduct): [C42H78NO8P+HCOO] 1-): 289.15 ± 0.21 Å²
SMILES: CCCCC/C=C\C/C=C\C/C=C\CCCCC(=O)O[C@H](COC(=O)CCCCCCCCCCCCCCC)COP(=O)([O-])OCC[N+](C)(C)C [PC 16:0_18:3]

The next lines start with the compound.

SMILES: CCCC/C=C\CCCCCCCC(=O)OC[C@H](COP(=O)([O-])OCC[N+](C)(C)C)OC(=O)CCCCCCC/C=C\CCCCCC [PC 14:1_16:1@]
- TIMS collisional cross section (sample type: Human plasma, ion (formula + adduct): [C38H72NO8P+HCOO] 1-): 278.6 Å²

SMILES: CCCCCC/C=C\CCCCCCCC(=O)O[C@H](COC(=O)CCCCCCCCCCCCCC)COP(=O)([O-])OCC[N+](C)(C)C [PC 15:0@_16:1]
- TIMS collisional cross section (sample type: Mouse Liver, ion (formula + adduct): [C39H76NO8P+AcO] 1-): 285.4 Å²

SMILES: CCCCC/C=C\C/C=C\C/C=C\CCCCC(=O)O[C@H](COC(=O)CCCCCCCCCCCCCC)COP(=O)([O-])OCC[N+](C)(C)C [PC 15:0@_18:3]
- TIMS collisional cross section (sample type: Human plasma, ion (formula + adduct): [C41H76NO8P+HCOO] 1-): 287.1 Å²

SMILES: CCCCC/C=C\C/C=C\C/C=C\C/C=C\CCCC(=O)O[C@H](COC(=O)CCCCCCCCCCCCCC)COP(=O)([O-])OCC[N+](C)(C)C [PC 15:0@_20:4]
- TIMS collisional cross section (sample type: Human plasma, ion (formula + adduct): [C43H78NO8P+OAcO] 1-): 295.5 Å²
- TIMS collisional cross section (sample type: Mouse Liver, ion (formula + adduct): [C43H78NO8P-H] 1-): 285.5 ± 12 Å²

SMILES: CC/C=C\C/C=C\C/C=C\C/C=C\C/C=C\C/C=C\CCC(=O)O[C@H](COC(=O)CCCCCCCCCCCCCC)COP(=O)([O-])OCC[N+](C)(C)C [PC 15:0@_22:6]
- TIMS collisional cross section (sample type: Mouse Liver, ion (formula + adduct): [C45H78NO8P-H] 1-): 280.7 Å²

SMILES: CCCCCCCCCCCCCCCC(=O)O[C@H](COC(=O)CCCCCCCCCCCCCC)COP(=O)([O-])OCC[N+](C)(C)C [PC 15:0_16:0@]
- TIMS collisional cross section (sample type: Human plasma, ion (formula + adduct): [C39H78NO8P+HCOO] 1-): 284.9 Å²
- TIMS collisional cross section (sample type: Human plasma, ion (formula + adduct): [C39H78NO8P+OAcO] 1-): 290.8 Å²

SMILES: CCCCCCCCCCCCCCCC(=O)O[C@H](COC(=O)CCCCCCCCCCCCCC)COP(=O)([O-])OCC[N+](C)(C)C [PC 15:0_16:0]
- TIMS collisional cross section (sample type: Human plasma, ion (formula + adduct): [C39H78NO8P-H] 1-): 269.8 Å²

SMILES: CCCCCCCCCCCCCCCCCC(=O)O[C@H](COC(=O)CCCCCCCCCCCCCC)COP(=O)([O-])OCC[N+](C)(C)C [PC 15:0_18:0@]
- TIMS collisional cross section [1]: 291.1 Å²

SMILES: CCCCCC/C=C\CCCCCCCCCC(=O)O[C@H](COC(=O)CCCCCCCCCCCCCC)COP(=O)([O-])OCC[N+](C)(C)C [PC 15:0_18:1]
- TIMS collisional cross section (sample type: Human plasma, ion (formula + adduct): [C41H80NO8P+HCOO] 1-): 288.8 Å²

SMILES: CCCCC/C=C\C/C=C\CCCCCCCC(=O)O[C@H](COC(=O)CCCCCCCCCCCCCC)COP(=O)([O-])OCC[N+](C)(C)C [PC 15:0_18:2]
- TIMS collisional cross section (sample type: Human plasma, ion (formula + adduct): [C41H78NO8P+HCOO] 1-): 288.2 Å²
- TIMS collisional cross section (sample type: Mouse Liver, ion (formula + adduct): [C41H78NO8P+HCOO] 1-): 287.1 Å²

SMILES: CCCCC/C=C\C/C=C\C/C=C\C/C=C\CCCC(=O)O[C@H](COC(=O)CCCCCCCCCCCCCC)COP(=O)([O-])OCC[N+](C)(C)C [PC 15:0_20:4]
- TIMS collisional cross section (sample type: Human plasma, ion (formula + adduct): [C43H78NO8P+HCOO] 1-): 291 Å²

SMILES: CC/C=C\C/C=C\C/C=C\C/C=C\C/C=C\C/C=C\CCC(=O)O[C@H](COC(=O)CCCCCCCCCCCCCC)COP(=O)([O-])OCC[N+](C)(C)C [PC 15:0_22:6]
- TIMS collisional cross section (sample type: Human plasma, ion (formula + adduct): [C45H78NO8P+HCOO] 1-): 294.4 Å²
- TIMS collisional cross section (sample type: Mouse Liver, ion (formula + adduct): [C45H78NO8P+HCOO] 1-): 294.4 Å²

SMILES: CCCCC/C=C\CCCCCCCC(=O)OC[C@H](COP(=O)([O-])OCC[N+](C)(C)C)OC(=O)CCCCCCCCC/C=C\CCCCCCCC [PC 15:1@_20:1]
- TIMS collisional cross section (sample type: Mouse Liver, ion (formula + adduct): [C43H82NO8P-H] 1-): 279.1 Å²

SMILES: CCCCC/C=C\C/C=C\C/C=C\C/C=C\CCCC(=O)O[C@H](COC(=O)CCCCCCC/C=C\CCCCC)COP(=O)([O-])OCC[N+](C)(C)C [PC 15:1@_20:4]
- TIMS collisional cross section (sample type: Human plasma, ion (formula + adduct): [C43H76NO8P-H] 1-): 275 Å²
- TIMS collisional cross section (sample type: Mouse Liver, ion (formula + adduct): [C43H76NO8P-H] 1-): 275.6 Å²

SMILES: CCCCC/C=C\C/C=C\CCCCCCCC(=O)O[C@H](COC(=O)CCCCCCC/C=C\CCCCC)COP(=O)([O-])OCC[N+](C)(C)C [PC 15:1_18:2]
- TIMS collisional cross section (sample type: Mouse Liver, ion (formula + adduct): [C41H76NO8P+HCOO] 1-): 286.5 Å²

SMILES: CCCCC/C=C\C/C=C\C/C=C\CCCCC(=O)O[C@H](COC(=O)CCCCCCCCCCCCCCC)COP(=O)([O-])OCC[N+](C)(C)C [PC 16:0@_18:3]
- TIMS collisional cross section (sample type: Human plasma, ion (formula + adduct): [C42H78NO8P+AcO] 1-): 295.1 Å²

SMILES: CC/C=C\C/C=C\C/C=C\C/C=C\CCCCC(=O)O[C@H](COC(=O)CCCCCCCCCCCCCCC)COP(=O)([O-])OCC[N+](C)(C)C [PC 16:0@_18:4]
- TIMS collisional cross section (sample type: Mouse Liver, ion (formula + adduct): [C42H76NO8P+HCOO] 1-): 287.6 Å²

SMILES: CCCCC/C=C\C/C=C\C/C=C\C/C=C\C/C=C\CCC(=O)O[C@H](COC(=O)CCCCCCCCCCCCCCC)COP(=O)([O-])OCC[N+](C)(C)C [PC 16:0@_22:5]
- TIMS collisional cross section (sample type: Human plasma, ion (formula + adduct): [C46H82NO8P-CH3] 1-): 282.7 ± 0.42 Å²
- TIMS collisional cross section (sample type: Mouse Liver, ion (formula + adduct): [C46H82NO8P-CH3] 1-): 282.4 Å²
